In brackets after ≈: the same amount, converted by molar mass. Activity calls are given as the source filed them. The rule behind the calls is not given here.
Tests used:
Staphylococcus aureus [1] = test: Antibacterial activity against methicillin resistant Staphylococcus aureus ATCC 43300 infected in ICR mouse systemic infection model at 2.5 mg/kg, ip pretreated with bacteria for 30 mins followed by compound addition and measured for 7 days; assay type: functional; details: time 7 day
[2] = Acute toxicity in ICR mouse at 2 g/kg, po measured after 7 days; assay type: organism-based; details: in vivo, 2000 mg/kg, time 7 day
[3] = test system: Staphylococcus epidermidis; test: Drug resistance development in Staphylococcus epidermidis ATCC 12228 assessed as increase in MIC value measured after 7 passages by broth microdilution method; assay type: functional, organism-based
[4] = AUC(0 to infinity) in ICR mouse at 1 mg/kg, iv; assay type: ADME, organism-based; details: in vivo
[5] = Half-life in ICR mouse at 5 mg/kg, po; assay type: ADME, organism-based; details: in vivo
Bacillus subtilis = test: Antibacterial activity against Bacillus subtilis CMCC 63501 incubated for 18 hrs by serial two-fold dilution method; assay type: functional
[6] = AUC(0 to infinity) in ICR mouse at 5 mg/kg, po; assay type: ADME, organism-based; details: in vivo
[7] = Half-life in ICR mouse at 1 mg/kg, iv; assay type: ADME, organism-based; details: in vivo
[8] = Cmax in ICR mouse at 1 mg/kg, iv; assay type: ADME, organism-based; details: in vivo
Cell membrane = test: Induction of bacterial cell membrane damage in methicillin resistant Staphylococcus aureus ATCC 33592 assessed as increase in fluorescence intensity at MIC incubated for 2 hrs by PI staining based microplate reader assay; assay type: cell membranes
Staphylococcus aureus [9] = test: Drug resistance development in methicillin resistant Staphylococcus aureus ATCC 43300 assessed as increase in MIC value measured after 7 passages by broth microdilution method; assay type: functional, organism-based
Staphylococcus aureus [10] = test: Potency index, ratio of griseofamine A MIC to test compound MIC for antibacterial activity against methicillin resistant Staphylococcus aureus ATCC 33592; assay type: functional
Staphylococcus aureus [11] = test: Inhibition of biofilm formation in methicillin resistant Staphylococcus aureus ATCC 33592 assessed as decrease in biofilm survival rate incubated for 48 hrs by crystal violet staining based optical microscopic analysis; assay type: functional, organism-based
[12] = MRT(0 to t) in ICR mouse at 1 mg/kg, iv; assay type: ADME, organism-based; details: in vivo
[13] = Volume of distribution in ICR mouse at 1 mg/kg, iv; assay type: ADME, organism-based; details: in vivo
[14] = test system: Staphylococcus epidermidis; test: Drug resistance development in Staphylococcus epidermidis ATCC 12228 assessed as increase in MIC value measured after 8 passages by broth microdilution method; assay type: functional
[15] = Clearance in ICR mouse at 1 mg/kg, iv; assay type: ADME, organism-based; details: in vivo
Staphylococcus aureus [16] = test: Drug resistance development in methicillin resistant Staphylococcus aureus ATCC 43300 assessed as increase in MIC value measured after 8 passages by broth microdilution method; assay type: functional
Staphylococcus aureus [17] = test: Drug resistance development in methicillin resistant Staphylococcus aureus […] assessed as increase in MIC value measured after 8 passages by broth microdilution method; assay type: functional
[18] = Acute toxicity in ICR mouse assessed as change in body weight at 2 g/kg, po measured after 7 days; assay type: organism-based; details: in vivo, 2000 mg/kg, 168 h, time 7 day
Staphylococcus aureus [19] = test: Drug resistance development in Staphylococcus aureus ATCC 29213 assessed as increase in MIC value measured after 8 passages by broth microdilution method; assay type: functional
[20] = Tmax in ICR mouse at 1 mg/kg, iv; assay type: ADME, organism-based; details: in vivo
Enterococcus faecium = test: Antibacterial activity against Enterococcus faecium ATCC 700221 incubated for 18 hrs by serial two-fold dilution method; assay type: functional
[21] = Clearance in ICR mouse at 5 mg/kg, po; assay type: ADME, organism-based; details: in vivo
[22] = Acute toxicity in ICR mouse assessed as change in food intake at 2 g/kg, po measured after 7 days; assay type: organism-based; details: in vivo, 2000 mg/kg, 168 h, time 7 day
Staphylococcus aureus [23] = test: Antibacterial activity against methicillin resistant Staphylococcus aureus ATCC 43300 infected in ICR mouse systemic infection model assessed as reduction in bacterial burden in spleen at 2.5 mg/kg, ip pretreated with bacteria for 30 mins followed by compound addition and measured for 7 days; assay type: functional, organism-based; details: time 7.0 day
Staphylococcus aureus [24] = test: Antibacterial activity against methicillin resistant Staphylococcus aureus ATCC 43300 infected in ICR mouse systemic infection model at 1.25 to 5 mg/kg, ip pretreated with bacteria for 30 mins followed by compound addition and measured for 7 days; assay type: functional; details: dose 1.25-5 mg/kg, time 7 day
[25] = AUC(0 to t) in ICR mouse at 5 mg/kg, po; assay type: ADME, organism-based; details: in vivo
Staphylococcus aureus [26] = test: Bactericidal activity against Staphylococcus aureus ATCC 29213 incubated for 18 to 24 hrs; assay type: functional; details: time 18-24 hrs
[27] = MRT(0 to t) in ICR mouse at 5 mg/kg, po; assay type: ADME, organism-based; details: in vivo
Staphylococcus aureus [28] = test: Antibacterial activity against methicillin resistant Staphylococcus aureus ATCC 33592 assessed as surface collapse at MIC incubated for 1 to 6 hrs by SEM analysis; assay type: functional, organism-based; details: time 1-6 hrs
[29] = Tmax in ICR mouse at 5 mg/kg, po; assay type: ADME, organism-based; details: in vivo
Staphylococcus aureus [30] = test: Antibacterial activity against methicillin resistant Staphylococcus aureus ATCC 43300 incubated for 18 hrs by serial two-fold dilution method; assay type: functional
[31] = Acute toxicity in ICR mouse assessed as change in water intake at 2 g/kg, po measured after 7 days; assay type: organism-based; details: in vivo, 2000 mg/kg, 168 h, time 7 day
Staphylococcus aureus [32] = test: Drug resistance development in methicillin resistant Staphylococcus aureus […] assessed as increase in MIC value measured after 7 passages by broth microdilution method; assay type: functional, organism-based
[33] = test system: Staphylococcus epidermidis; test: Antibacterial activity against Staphylococcus epidermidis ATCC 12228 incubated for 18 hrs by serial two-fold dilution method; assay type: functional
[34] = AUC(0 to t) in ICR mouse at 1 mg/kg, iv; assay type: ADME, organism-based; details: in vivo
[35] = Acute toxicity in ICR mouse assessed as aberrant behavior at 2 g/kg, po measured after 7 days; assay type: organism-based; details: in vivo, 2000 mg/kg, 168 h, time 7 day
[36] = MRT(0 to infinity) in ICR mouse at 1 mg/kg, iv; assay type: ADME, organism-based; details: in vivo
Staphylococcus aureus [37] = test: Bactericidal activity against methicillin resistant Staphylococcus aureus ATCC 33592 incubated for 18 to 24 hrs; assay type: functional; details: time 18-24 hrs
Staphylococcus aureus [38] = test: Antibacterial activity against methicillin resistant Staphylococcus aureus ATCC 43300 infected in ICR mouse systemic infection model assessed as reduction in bacterial burden in liver at 2.5 mg/kg, ip pretreated with bacteria for 30 mins followed by compound addition and measured for 7 days; assay type: functional, organism-based; details: time 7.0 day
Staphylococcus aureus [39] = test: Antibacterial activity against methicillin resistant Staphylococcus aureus ATCC 43300 infected in ICR mouse systemic infection model assessed as reduction in bacterial burden in kidney at 2.5 mg/kg, ip pretreated with bacteria for 30 mins followed by compound addition and measured for 7 days; assay type: functional, organism-based; details: time 7.0 day
Staphylococcus aureus [40] = test: Antibacterial activity against methicillin resistant Staphylococcus aureus ATCC 33592 incubated for 18 hrs by serial two-fold dilution method; assay type: functional
Staphylococcus aureus [41] = test: Antibacterial activity against methicillin resistant Staphylococcus aureus ATCC 33592 assessed as leakage of cellular components at MIC incubated for 1 to 6 hrs by SEM analysis; assay type: functional, organism-based; details: time 1-6 hrs
Staphylococcus aureus [42] = test: Antibacterial activity against methicillin resistant Staphylococcus aureus ATCC 43300 infected in ICR mouse systemic infection model assessed as reduction in bacterial burden in heart at 2.5 mg/kg, ip pretreated with bacteria for 30 mins followed by compound addition and measured for 7 days; assay type: functional, organism-based; details: time 7.0 day
[43] = Bioavailability in ICR mouse at 5 mg/kg, po; assay type: ADME, organism-based; details: in vivo

Compound: C/C(O)=C1\C(=O)[C@@H]2Cc3c([nH]c4ccccc34)[C@@H](c3ccc(-c4cc(F)cc(F)c4)cc3)N2C1=O
- Activity (Staphylococcus aureus [1]): 75%
- LD50 at 168 h [2]: > 2000 mg/kg
- Activity [3]: inactive
- AUC(0-inf) [4]: 4290 ng·h/mL
- half-life [5]: 7.91 h
- MIC (Bacillus subtilis): 0.14 µg/mL (≈ 0.298 µM)
- AUC(0-inf) [6]: 2570 ng·h/mL
- half-life [7]: 7.59 h
- Cmax [8]: 748 ng/mL
- Activity (Cell membrane): Active
- Activity (Staphylococcus aureus [9]): inactive
- Ratio (Staphylococcus aureus [10]): 128
- inhibition (Staphylococcus aureus [11]): Dose-Dependent Effect
- MRT last [12]: 10.4 h
- Vd [13]: 2.55 L/kg
- MIC [14]: 2 µg/mL
- clearance [15]: 3.88 mL/min/kg
- MIC (Staphylococcus aureus [16]): 2 µg/mL
- MIC (Staphylococcus aureus [17]): 2 µg/mL
- Activity [18]: Non-Toxic
- MIC (Staphylococcus aureus [19]): 2 µg/mL
- Tmax [20]: 1.8 min
- MIC (Enterococcus faecium): 0.45 µg/mL (≈ 0.956 µM)
- CL/F [21]: 32.5 mL/min/kg
- Activity [22]: Non-Toxic
- Activity (Staphylococcus aureus [23]): Active
- Activity (Staphylococcus aureus [24]): >50%
- AUC(0-t) [25]: 2450 ng·h/mL
- MBC (Staphylococcus aureus [26]): 1 µg/mL (≈ 2.13 µM)
- MRT last [27]: 10.6 h
- Activity (Staphylococcus aureus [28]): Active
- Tmax [29]: 3.33 h
- MIC (Staphylococcus aureus [30]): 0.063 µg/mL (≈ 0.134 µM)
- Activity [31]: Non-Toxic
- Activity (Staphylococcus aureus [32]): inactive
- MIC [33]: 0.125 µg/mL (≈ 0.266 µM)
- AUC(0-t) [34]: 4240 ng·h/mL
- Activity [35]: Non-Toxic
- MRT inf [36]: 11.1 h
- MBC (Staphylococcus aureus [37]): 0.5 µg/mL (≈ 1.06 µM)
- Activity (Staphylococcus aureus [38]): Active
- Activity (Staphylococcus aureus [39]): Active
- MIC (Staphylococcus aureus [40]): 0.063 µg/mL (≈ 0.134 µM)
- Activity (Staphylococcus aureus [41]): Active
- Activity (Staphylococcus aureus [42]): Active
- bioavailability [43]: 11.6%

— ChEMBL document CHEMBL5608208, “Design, synthesis of griseofamine A derivatives and development of potent antibacterial agents against MRSA” (Eur J Med Chem, 2024)
